Results as given in patent publication US9120795B2, “Crystalline form of a β-lactamase inhibitor” (Cubist Pharmaceuticals, Inc., priority 2013, dated 2015).

Legend:
[1] = Solid form stability at ambient conditions, XRPD; format: physicochemical
Procedure: X-Ray Powder Diffraction patterns were collected on a Bruker D8 diffractometer using Cu Kα radiation (40 kV, 40 mA), 0-20 goniometer, and divergence of V4 and receiving slits, a Ge monochromator and a Lynxeye detector. The instrument is performance checked using a certified Corundum standard (NIST 1976). The software used for data collection was Diffrac Plus XRD Commander v2.6.1 and the data were analysed and presented using Diffrac Plus EVA v13.0.0.2 or v15.0.0.0. Samples were run under ambient conditions as flat plate specimens using powder as received. The sample was gently packed into a cavity cut into polished, zero-background (510) silicon wafer. The sample was rotated in its own plane during analysis. The details of the data collection are: angular range: 2 to 42 °2θ; step size: 0.05 °2θ; collection time: 0.5 s/step. Amorphous material (˜60 mg) was generated as in Procedure 1. The amorphous material was suspended in different solvent systems (3 mL) at 50° C. A sample was withdrawn after 3 h and 24 h. The final product was filtered after 48 h and analysed by XRPD. The solids isolated were re-analysed again by XRPD after few days at ambient conditions (˜25° C. and ˜40% RH).

Ecl.569 (AmpC, clinical) = test: Standard BLI potentiation MIC assay; format: cell-based, Enterobacter spp; details: Enterobacter, read-out: MIC of β-lactam with BLI
Procedure: (§1) The experimental protocol was performed according to Clinical and Laboratory Standards Institute (CLSI) guidelines with modifications as described below (CLSI guidelines can be derived from the CLSI document M07-A9 published in January 2012: “Methods for Dilution Antimicrobial Susceptibility Tests for Bacteria That Grow Aerobically; Approved Standard-Ninth Edition”).
(§2) To prepare for MIC testing, frozen glycerol stocks of clinical isolates (Klebsiella pneumoniae, Eschericia coli, Enterobacter spp, Citrobacter spp, or Pseudomonas aeruginosa) were used to streak for isolated colonies on rich, non-selective, tryptic soy agar containing 5% sheep's blood (TSAB). Frozen glycerol stocks of laboratory engineered, isogenic E. coli strains, which contain cloned β-lactamase expressing plasmids were used to streak for isolated colonies on rich, selective LB agar supplemented with 25 μg/mL tetracycline to maintain the plasmid. All strains were incubated at 37° C. for 18-24 hrs. […]
(§3) Plates were incubated for 18-20 hours at 37° C. with aeration (200 rpm). Following incubation, growth was confirmed visually placing plates over a viewing apparatus (stand with a mirror underneath) and then OD600 was measured using a SpectraMax 340PC384 plate reader (Molecular Devices, Sunnyvale, Calif.). Growth was defined as turbidity that could be detected with the naked eye or achieving minimum OD600 of 0.1. […]

[2] = test system: Panel of Isogenic and Clinical Strains Expressing β-Lactamases; test: Standard BLI potentiation MIC assay, whole panel; format: cell-based
Procedure: as §1, §2, §3

SMILES: O=C1N2C[C@@H](CC[C@H]2c2nnco2)N1OS(=O)(=O)[O-].[Na+] [Hydrate 1, sodium (2S,5R)-2-(1,3,4-oxadiazol-2-yl)-7-oxo-1,6-diazabicyclo[3.2.1]octan-6-yl sulfate]
- change of crystal form on storage ([1]; 25° C. at 40% relative humidity over 2 days (FIG. 2)): little to no change
- relative stability among the crystalline forms ([1]; ambient conditions (25° C. and 40% RH)): most stable crystalline form
- stability of the form (Summary of Forms, Description) ([1]; sulfate): Stable tri-hydrate
- MIC (Ecl.569 (AmpC, clinical)): 0.25 to 0.5 µg/mL
- MIC50 [2]: 1 to 2 µg/mL
- MIC90 [2]: 1 to 2 µg/mL
